Source: the kinase profiling compilation of Christmann-Franck et al. (2016)
“And” between values parts separate entries of the source, which are not always exact repeats. Identical values can stand only once.

Legend:
Assay in all cases: radiometric filter-binding kinase assay, Kinase HotSpot
Details in all cases: compound 0.5 µM; ATP 10 µM
ABL1 (human) = ABL1 (human) (UniProt P00519)
AKT2 (human) = AKT2 (human) (UniProt P31751)
CDK1 CCNB1 (human) = CDK1 CCNB1 (human) (UniProt P06493+P14635)
CDK2 CCNE1 (human) = CDK2 CCNE1 (human) (UniProt P24941+P24864)
CDK9 CCNT1 (human) = CDK9 CCNT1 (human) (UniProt P50750+O60563)
CSK (human) = CSK (human) (UniProt P41240)
DSTYK (human) = DSTYK (human) (UniProt Q6XUX3)
DYRK4 (human) = DYRK4 (human) (UniProt Q9NR20)
EPHA2 (human) = EPHA2 (human) (UniProt P29317)
EPHA4 (human) = EPHA4 (human) (UniProt P54764)
FYN (human) = FYN (human) (UniProt P06241)
GSG2 (human) = GSG2 (human) (UniProt Q8TF76)
IGF1R (human) = IGF1R (human) (UniProt P08069)
JAK2 JH1 JH2 (human) = JAK2 JH1 JH2 (human) (UniProt O60674)
LCK (human) = LCK (human) (UniProt P06239)
LIMK1 (human) = LIMK1 (human) (UniProt P53667)
LRRK2 (human) = LRRK2 (human) (UniProt Q5S007)
LYN (human) = LYN (human) (UniProt P07948)
MAP3K10 (human) = MAP3K10 (human) (UniProt Q02779)
MAP3K11 (human) = MAP3K11 (human) (UniProt Q16584)
MAP4K5 (human) = MAP4K5 (human) (UniProt Q9Y4K4)
MAPKAPK2 (human) = MAPKAPK2 (human) (UniProt P49137)
PAK2 (human) = PAK2 (human) (UniProt Q13177)
PBK (human) = PBK (human) (UniProt Q96KB5)
PDPK1 (human) = PDPK1 (human) (UniProt O15530)
PHKG2 (human) = PHKG2 (human) (UniProt P15735)
PKN1 (human) = PKN1 (human) (UniProt Q16512)
PRKCB1 (human) = PRKCB1 (human) (UniProt P05771)
PRKCE (human) = PRKCE (human) (UniProt Q02156)
RAF1 (human) = RAF1 (human) (UniProt P04049)
ROCK2 (human) = ROCK2 (human) (UniProt O75116)
RPS6KA3 KD1 KD2 (human) = RPS6KA3 KD1 KD2 (human) (UniProt P51812)
RPS6KA6 KD1 KD2 (human) = RPS6KA6 KD1 KD2 (human) (UniProt Q9UK32)
STK10 (human) = STK10 (human) (UniProt O94804)
STK11 (human) = STK11 (human) (UniProt Q15831)
STK3 (human) = STK3 (human) (UniProt Q13188)
STK39 (human) = STK39 (human) (UniProt Q9UEW8)
TAOK1 (human) = TAOK1 (human) (UniProt Q7L7X3)
TGFBR1 (human) = TGFBR1 (human) (UniProt P36897)
TXK (human) = TXK (human) (UniProt P42681)
WNK3 (human) = WNK3 (human) (UniProt Q9BYP7)
ZAP70 (human) = ZAP70 (human) (UniProt P43403)

Chain of CDK2 CCNE1 (human) (P24864 whole entry, looked up, other chains not shown): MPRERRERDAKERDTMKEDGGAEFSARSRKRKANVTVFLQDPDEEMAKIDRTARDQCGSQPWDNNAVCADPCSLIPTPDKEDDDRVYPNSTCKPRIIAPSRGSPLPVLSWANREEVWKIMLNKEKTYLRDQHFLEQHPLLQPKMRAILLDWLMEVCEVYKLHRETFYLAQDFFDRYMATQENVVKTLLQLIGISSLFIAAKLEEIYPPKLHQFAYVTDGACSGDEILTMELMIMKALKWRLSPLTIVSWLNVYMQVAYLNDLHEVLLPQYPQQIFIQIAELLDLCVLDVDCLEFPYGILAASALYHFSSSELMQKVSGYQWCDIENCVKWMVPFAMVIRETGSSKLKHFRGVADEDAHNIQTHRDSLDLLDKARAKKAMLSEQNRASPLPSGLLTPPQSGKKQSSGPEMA
Chain of EPHA4 (human) (P54764 whole entry, looked up): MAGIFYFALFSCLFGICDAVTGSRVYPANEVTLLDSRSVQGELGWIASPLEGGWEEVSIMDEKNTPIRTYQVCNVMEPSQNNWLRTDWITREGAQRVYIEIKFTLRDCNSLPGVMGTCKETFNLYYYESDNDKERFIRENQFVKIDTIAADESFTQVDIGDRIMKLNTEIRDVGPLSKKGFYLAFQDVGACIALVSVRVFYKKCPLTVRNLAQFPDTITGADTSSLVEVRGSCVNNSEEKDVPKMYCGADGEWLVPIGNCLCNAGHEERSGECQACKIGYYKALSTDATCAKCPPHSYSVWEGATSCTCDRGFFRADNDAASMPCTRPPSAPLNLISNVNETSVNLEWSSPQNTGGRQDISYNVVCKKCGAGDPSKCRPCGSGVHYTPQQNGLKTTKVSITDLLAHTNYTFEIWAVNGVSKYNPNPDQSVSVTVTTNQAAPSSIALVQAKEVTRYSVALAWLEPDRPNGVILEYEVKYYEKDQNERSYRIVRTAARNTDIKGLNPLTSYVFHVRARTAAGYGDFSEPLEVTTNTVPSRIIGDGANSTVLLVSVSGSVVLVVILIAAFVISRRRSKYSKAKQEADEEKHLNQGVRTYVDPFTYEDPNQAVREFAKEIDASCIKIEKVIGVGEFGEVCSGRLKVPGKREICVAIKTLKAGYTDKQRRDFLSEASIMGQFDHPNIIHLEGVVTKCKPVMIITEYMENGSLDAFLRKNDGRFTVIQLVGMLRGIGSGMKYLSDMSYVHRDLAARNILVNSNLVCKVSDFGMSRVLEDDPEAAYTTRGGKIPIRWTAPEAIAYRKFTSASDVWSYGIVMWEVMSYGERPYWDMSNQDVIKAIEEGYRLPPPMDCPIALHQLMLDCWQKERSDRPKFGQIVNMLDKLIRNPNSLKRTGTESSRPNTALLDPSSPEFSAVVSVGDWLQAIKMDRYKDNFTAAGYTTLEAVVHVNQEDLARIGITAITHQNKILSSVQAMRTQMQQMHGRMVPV
Chain of CSK (human) (P41240 whole entry, looked up): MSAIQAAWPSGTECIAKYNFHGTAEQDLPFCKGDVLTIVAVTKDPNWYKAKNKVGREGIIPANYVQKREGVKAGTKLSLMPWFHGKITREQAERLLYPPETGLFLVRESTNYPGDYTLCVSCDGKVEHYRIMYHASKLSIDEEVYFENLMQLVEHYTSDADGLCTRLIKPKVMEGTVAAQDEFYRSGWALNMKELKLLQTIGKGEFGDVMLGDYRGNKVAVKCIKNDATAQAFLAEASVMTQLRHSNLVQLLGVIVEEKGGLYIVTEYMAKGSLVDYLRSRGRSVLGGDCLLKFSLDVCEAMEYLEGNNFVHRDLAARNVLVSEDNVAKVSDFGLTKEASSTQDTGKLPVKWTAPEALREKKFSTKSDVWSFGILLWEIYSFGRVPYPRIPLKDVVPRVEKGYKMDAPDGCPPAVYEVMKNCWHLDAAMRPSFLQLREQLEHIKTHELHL
Chain of MAP4K5 (human) (Q9Y4K4 whole entry, looked up): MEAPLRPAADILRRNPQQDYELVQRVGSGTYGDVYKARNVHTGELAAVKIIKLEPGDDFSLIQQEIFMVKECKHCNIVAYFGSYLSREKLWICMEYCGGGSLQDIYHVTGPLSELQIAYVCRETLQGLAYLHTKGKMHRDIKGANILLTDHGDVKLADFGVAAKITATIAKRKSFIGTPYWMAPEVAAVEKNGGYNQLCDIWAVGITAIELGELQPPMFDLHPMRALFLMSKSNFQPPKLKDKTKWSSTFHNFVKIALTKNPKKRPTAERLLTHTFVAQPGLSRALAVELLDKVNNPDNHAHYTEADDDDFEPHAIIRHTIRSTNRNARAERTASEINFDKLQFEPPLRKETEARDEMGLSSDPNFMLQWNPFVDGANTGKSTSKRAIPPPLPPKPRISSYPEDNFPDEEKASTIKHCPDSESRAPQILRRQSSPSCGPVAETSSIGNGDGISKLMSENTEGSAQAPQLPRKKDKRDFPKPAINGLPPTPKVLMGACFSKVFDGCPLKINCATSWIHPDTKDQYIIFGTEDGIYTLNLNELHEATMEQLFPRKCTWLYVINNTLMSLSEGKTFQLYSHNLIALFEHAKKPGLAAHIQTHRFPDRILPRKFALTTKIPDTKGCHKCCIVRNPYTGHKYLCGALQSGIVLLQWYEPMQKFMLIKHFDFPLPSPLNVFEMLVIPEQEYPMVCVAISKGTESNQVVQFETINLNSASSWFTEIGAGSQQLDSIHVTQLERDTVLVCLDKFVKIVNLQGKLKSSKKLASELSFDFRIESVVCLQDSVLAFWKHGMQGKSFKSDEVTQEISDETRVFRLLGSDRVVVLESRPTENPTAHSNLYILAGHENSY
Chain of STK11 (human) (Q15831 whole entry, looked up): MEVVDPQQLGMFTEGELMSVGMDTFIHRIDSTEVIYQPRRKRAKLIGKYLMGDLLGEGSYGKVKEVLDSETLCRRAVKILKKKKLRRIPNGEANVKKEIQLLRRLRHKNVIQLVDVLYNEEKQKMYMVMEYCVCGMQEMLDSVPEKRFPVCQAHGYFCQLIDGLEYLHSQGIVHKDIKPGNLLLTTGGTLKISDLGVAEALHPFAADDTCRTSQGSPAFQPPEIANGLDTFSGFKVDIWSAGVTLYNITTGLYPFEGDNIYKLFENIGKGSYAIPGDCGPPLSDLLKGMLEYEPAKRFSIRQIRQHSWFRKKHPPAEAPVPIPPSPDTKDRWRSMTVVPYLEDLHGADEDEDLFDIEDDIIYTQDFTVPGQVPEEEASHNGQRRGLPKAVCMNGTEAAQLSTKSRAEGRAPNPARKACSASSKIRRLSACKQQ
Chain of CDK1 CCNB1 (human) (P06493 whole entry, looked up): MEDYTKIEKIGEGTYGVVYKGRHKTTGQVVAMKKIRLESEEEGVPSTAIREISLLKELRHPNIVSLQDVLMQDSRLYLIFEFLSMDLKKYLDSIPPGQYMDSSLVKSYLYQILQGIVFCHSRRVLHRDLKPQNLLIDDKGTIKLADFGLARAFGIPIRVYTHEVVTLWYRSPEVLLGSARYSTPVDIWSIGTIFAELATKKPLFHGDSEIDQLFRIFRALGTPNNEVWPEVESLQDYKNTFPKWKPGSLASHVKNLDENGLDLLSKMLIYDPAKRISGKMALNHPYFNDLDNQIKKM
Chain of CDK1 CCNB1 (human) (P14635 whole entry, looked up): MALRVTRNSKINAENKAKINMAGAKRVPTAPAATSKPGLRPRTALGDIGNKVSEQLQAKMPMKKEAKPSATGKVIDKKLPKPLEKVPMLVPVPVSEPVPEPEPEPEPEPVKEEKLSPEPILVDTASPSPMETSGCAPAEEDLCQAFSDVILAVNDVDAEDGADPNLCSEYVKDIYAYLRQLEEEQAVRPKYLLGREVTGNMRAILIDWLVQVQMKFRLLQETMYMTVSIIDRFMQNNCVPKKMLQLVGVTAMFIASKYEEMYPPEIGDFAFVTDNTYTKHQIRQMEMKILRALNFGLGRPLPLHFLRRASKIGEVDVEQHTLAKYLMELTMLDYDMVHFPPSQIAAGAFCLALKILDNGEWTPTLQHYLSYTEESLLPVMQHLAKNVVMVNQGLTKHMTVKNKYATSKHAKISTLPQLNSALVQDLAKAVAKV
Chain of EPHA2 (human) (P29317 whole entry, looked up): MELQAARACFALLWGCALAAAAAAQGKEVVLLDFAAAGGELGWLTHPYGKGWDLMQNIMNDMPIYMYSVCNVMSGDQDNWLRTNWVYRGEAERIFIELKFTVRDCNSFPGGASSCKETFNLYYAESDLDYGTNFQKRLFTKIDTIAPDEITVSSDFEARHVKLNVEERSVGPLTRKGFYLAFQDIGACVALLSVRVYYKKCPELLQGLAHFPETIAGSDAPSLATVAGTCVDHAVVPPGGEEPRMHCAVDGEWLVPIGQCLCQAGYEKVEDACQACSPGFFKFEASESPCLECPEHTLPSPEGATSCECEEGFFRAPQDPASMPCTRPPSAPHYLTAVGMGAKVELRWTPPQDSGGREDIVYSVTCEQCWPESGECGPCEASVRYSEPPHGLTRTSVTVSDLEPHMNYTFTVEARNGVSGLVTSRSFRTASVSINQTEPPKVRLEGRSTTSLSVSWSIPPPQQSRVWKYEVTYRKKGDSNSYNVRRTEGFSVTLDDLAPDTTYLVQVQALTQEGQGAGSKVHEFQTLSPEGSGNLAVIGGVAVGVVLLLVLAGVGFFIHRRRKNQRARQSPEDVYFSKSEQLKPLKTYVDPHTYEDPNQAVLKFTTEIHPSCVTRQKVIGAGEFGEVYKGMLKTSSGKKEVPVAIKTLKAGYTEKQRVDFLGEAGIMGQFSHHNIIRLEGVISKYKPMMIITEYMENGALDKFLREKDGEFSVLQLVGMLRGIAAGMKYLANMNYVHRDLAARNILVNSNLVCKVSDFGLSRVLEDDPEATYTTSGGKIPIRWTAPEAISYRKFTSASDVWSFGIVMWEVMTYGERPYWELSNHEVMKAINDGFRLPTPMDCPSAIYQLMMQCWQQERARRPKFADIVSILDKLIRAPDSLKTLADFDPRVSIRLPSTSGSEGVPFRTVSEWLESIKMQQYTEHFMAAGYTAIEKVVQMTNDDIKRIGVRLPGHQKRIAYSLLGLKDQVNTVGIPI

For `c1ccc2c(-c3ccncc3)c[nH]c2c1`, the residual activity (ABL1 (human)) was 98.8%, the residual activity (AKT2 (human)) was 96.4% and the residual activity (CDK1 CCNB1 (human)) was 96%. The residual activity (CDK2 CCNE1 (human)) was 91.7%, the residual activity (CDK9 CCNT1 (human)) was 75.2% and the residual activity (CSK (human)) was 107%. The residual activity (DSTYK (human)) was 95.9%, the residual activity (DYRK4 (human)) was 98.7% and the residual activity (EPHA2 (human)) was 106%. The residual activity (EPHA4 (human)) was 108%, the residual activity (FYN (human)) was 98.7% and the residual activity (GSG2 (human)) was 62.3%. For the same compound, the residual activity (IGF1R (human)) was 105%, the residual activity (JAK2 JH1 JH2 (human)) was 93.8% and the residual activity (LCK (human)) was 102%. For the same compound, the residual activity (LIMK1 (human)) was 92%, the residual activity (LRRK2 (human)) was 92.8% and the residual activity (LYN (human)) was 100% and 102%. For the same compound, the residual activity (MAP3K10 (human)) was 101%, the residual activity (MAP3K11 (human)) was 95.2% and the residual activity (MAP4K5 (human)) was 106%. The residual activity (MAPKAPK2 (human)) was 101%, the residual activity (PAK2 (human)) was 84% and the residual activity (PBK (human)) was 97.1%. For the same compound, the residual activity (PDPK1 (human)) was 96.6%, the residual activity (PHKG2 (human)) was 101% and the residual activity (PKN1 (human)) was 66.4%. It also gave a residual activity (PRKCB1 (human)) of 95.1%, a residual activity (PRKCE (human)) of 81.5% and a residual activity (RAF1 (human)) of 93.2%. For the same compound, the residual activity (ROCK2 (human)) was 71.9%, the residual activity (RPS6KA3 KD1 KD2 (human)) was 97.4% and the residual activity (RPS6KA6 KD1 KD2 (human)) was 112%. For the same compound, the residual activity (STK10 (human)) was 93.7%, the residual activity (STK11 (human)) was 90.7% and the residual activity (STK3 (human)) was 112%. The residual activity (STK39 (human)) was 99.8%, the residual activity (TAOK1 (human)) was 88.4% and the residual activity (TGFBR1 (human)) was 103%. It also gave a residual activity (TXK (human)) of 104%, a residual activity (WNK3 (human)) of 100% and a residual activity (ZAP70 (human)) of 105%.

`COc1ccc2c(c1)c(C1=C(c3c[nH]c4ccccc34)C(=O)NC1=O)cn2CCCN(C)C` gave a residual activity (ABL1 (human)) of 107%, a residual activity (AKT2 (human)) of 110% and a residual activity (CDK1 CCNB1 (human)) of 94.4%. It also gave a residual activity (CDK2 CCNE1 (human)) of 97.9%, a residual activity (CDK9 CCNT1 (human)) of 69.7% and a residual activity (CSK (human)) of 84%. For the same compound, the residual activity (DSTYK (human)) was 82.8%, the residual activity (DYRK4 (human)) was 97.3% and the residual activity (EPHA2 (human)) was 91.3%. The residual activity (EPHA4 (human)) was 94.5%, the residual activity (FYN (human)) was 110% and the residual activity (GSG2 (human)) was 93.5%. For the same compound, the residual activity (IGF1R (human)) was 115%, the residual activity (JAK2 JH1 JH2 (human)) was 97.5% and the residual activity (LCK (human)) was 93.6%. The residual activity (LIMK1 (human)) was 81.8%, the residual activity (LRRK2 (human)) was 87% and the residual activity (LYN (human)) was 112% and 94.2%. The residual activity (MAP3K10 (human)) was 83.4%, the residual activity (MAP3K11 (human)) was 75.6% and the residual activity (MAP4K5 (human)) was 27.7%. The residual activity (MAPKAPK2 (human)) was 99.7%, the residual activity (PAK2 (human)) was 108% and the residual activity (PBK (human)) was 96.8%. The residual activity (PDPK1 (human)) was 76.7%, the residual activity (PHKG2 (human)) was 98.3% and the residual activity (PKN1 (human)) was 34.7%. It also gave a residual activity (PRKCB1 (human)) of 19.3%, a residual activity (PRKCE (human)) of 14.6% and a residual activity (RAF1 (human)) of 99.3%. It also gave a residual activity (ROCK2 (human)) of 89.2%, a residual activity (RPS6KA3 KD1 KD2 (human)) of 6.55% and a residual activity (RPS6KA6 KD1 KD2 (human)) of 4.52%. It also gave a residual activity (STK10 (human)) of 31.7%, a residual activity (STK11 (human)) of 101% and a residual activity (STK3 (human)) of 72.2%. The residual activity (STK39 (human)) was 111%, the residual activity (TAOK1 (human)) was 99.5% and the residual activity (TGFBR1 (human)) was 101%. It also gave a residual activity (TXK (human)) of 82.8%, a residual activity (WNK3 (human)) of 92% and a residual activity (ZAP70 (human)) of 90.3%.

For `CS(=O)(=O)CCNCc1ccc(-c2ccc3ncnc(Nc4ccc(OCc5cccc(F)c5)c(Cl)c4)c3c2)o1`, the residual activity (ABL1 (human)) was 96.4%, the residual activity (AKT2 (human)) was 105% and the residual activity (CDK1 CCNB1 (human)) was 100%. For the same compound, the residual activity (CDK2 CCNE1 (human)) was 98.8%, the residual activity (CDK9 CCNT1 (human)) was 85.2% and the residual activity (CSK (human)) was 106%. It also gave a residual activity (DSTYK (human)) of 108%, a residual activity (DYRK4 (human)) of 103% and a residual activity (EPHA2 (human)) of 99%. The residual activity (EPHA4 (human)) was 101%, the residual activity (FYN (human)) was 99.4% and the residual activity (GSG2 (human)) was 66.5%. For the same compound, the residual activity (IGF1R (human)) was 87.4%, the residual activity (JAK2 JH1 JH2 (human)) was 101% and the residual activity (LCK (human)) was 94.2%. For the same compound, the residual activity (LIMK1 (human)) was 95.2%, the residual activity (LRRK2 (human)) was 76.9% and the residual activity (LYN (human)) was 103% and 104%. For the same compound, the residual activity (MAP3K10 (human)) was 108%, the residual activity (MAP3K11 (human)) was 106% and the residual activity (MAP4K5 (human)) was 109%. For the same compound, the residual activity (MAPKAPK2 (human)) was 94.7%, the residual activity (PAK2 (human)) was 102% and the residual activity (PBK (human)) was 105%. For the same compound, the residual activity (PDPK1 (human)) was 86.4%, the residual activity (PHKG2 (human)) was 99.5% and the residual activity (PKN1 (human)) was 106%. It also gave a residual activity (PRKCB1 (human)) of 93.5%, a residual activity (PRKCE (human)) of 98% and a residual activity (RAF1 (human)) of 85.9%. For the same compound, the residual activity (ROCK2 (human)) was 92.7%, the residual activity (RPS6KA3 KD1 KD2 (human)) was 105% and the residual activity (RPS6KA6 KD1 KD2 (human)) was 108%. It also gave a residual activity (STK10 (human)) of 94.8%, a residual activity (STK11 (human)) of 106% and a residual activity (STK3 (human)) of 93.7%. For the same compound, the residual activity (STK39 (human)) was 100%, the residual activity (TAOK1 (human)) was 98.8% and the residual activity (TGFBR1 (human)) was 101%. For the same compound, the residual activity (TXK (human)) was 110%, the residual activity (WNK3 (human)) was 104% and the residual activity (ZAP70 (human)) was 92.5%.
